In ChEMBL document CHEMBL5257142, “Targeted Degradation of KRASG12D as Potential Therapy in Cancer” (ACS Med Chem Lett, 2023):

These molecules were tested on GTPase KRas (Homo sapiens), P01116 [G12D] (assay: Protac activity at VHL/KRAS G12D in human ASPC1 cells assessed as induction of KRAS G12D protein degradation at 1 uM incubated for 24 hrs by luminescence based analysis relative to control).
GTPase KRas (Homo sapiens), P01116 [G12D], sequence (P01116 whole entry G12D, looked up): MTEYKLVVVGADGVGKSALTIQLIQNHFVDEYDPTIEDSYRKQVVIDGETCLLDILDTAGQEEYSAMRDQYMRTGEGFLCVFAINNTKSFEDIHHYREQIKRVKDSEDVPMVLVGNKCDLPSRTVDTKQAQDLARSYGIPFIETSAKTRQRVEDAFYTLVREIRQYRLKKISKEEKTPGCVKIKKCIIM
Format: cell-based
Molecule `Cc1cc(N)nc(-c2c(Cl)cc3c(N4CC5CCC(C4)N5)nc(OC[C@@H]4CCCN4CCCOCCCOc4cc(-c5scnc5C)ccc4CNC(=O)[C@@H]4C[C@@H](O)CN4C(=O)[C@H](NC(=O)C4(F)CC4)C(C)(C)C)nc3c2F)c1C(F)(F)F` has an Activity of -5.46%.
For `Cc1ncsc1-c1ccc([C@H](C)NC(=O)[C@@H]2C[C@@H](O)CN2C(=O)[C@@H](NC(=O)CCOCCCN2CCC[C@H]2COc2nc(N3CC4CCC(C3)N4)c3cc(Cl)c(-c4ccc(F)c5sc(N)nc45)c(F)c3n2)C(C)(C)C)cc1`, the Activity was 51.3%.
In the case of `Cc1cc(N)nc(-c2c(Cl)cc3c(N4CC5CCC(C4)N5)nc(OC[C@@H]4CCCN4CCCCCCCN4CCC(c5cc(F)cc6c5CN(C5CCC(=O)NC5=O)C6=O)CC4)nc3c2F)c1C(F)(F)F` (stereo partly specified), the Activity is reported as -22.9%.
Work on `Cc1ncsc1-c1ccc([C@H](C)NC(=O)[C@@H]2C[C@@H](O)CN2C(=O)[C@@H](NC(=O)CCCCN2CCC[C@H]2COc2nc(N3CC4CCC(C3)N4)c3cc(Cl)c(-c4ccc(F)c5sc(N)nc45)c(F)c3n2)C(C)(C)C)cc1` yielded an Activity of 38.1%.
`Cc1cc(N)nc(-c2c(Cl)cc3c(N4CC5CCC(C4)N5)nc(OC[C@@H]4CCCN4CCCOCCC(=O)N[C@H](C(=O)N4C[C@H](O)C[C@H]4C(=O)N[C@@H](C)c4ccc(-c5scnc5C)cc4)C(C)(C)C)nc3c2F)c1C(F)(F)F` showed an Activity of 29.3%.
`Cc1cc(N)nc(-c2c(Cl)cc3c(N4CC5CCC(C4)N5)nc(OC[C@@H]4CCCN4CCCOCCC(=O)N[C@H](C(=O)N4C[C@H](O)C[C@H]4C(=O)NCc4ccc(-c5scnc5C)cc4)C(C)(C)C)nc3c2F)c1C(F)(F)F` was tested, and the Activity was -0.69%.
